Measurements: the Kinase Knowledgebase extract (Sharma et al. 2016)

Columns and labels:
CDK2 = CDK2 (UniProt P24941); assay: Enzyme Assay
EGFR = EGFR (UniProt P00533)
EGFR, sequence (P00533 whole entry, looked up): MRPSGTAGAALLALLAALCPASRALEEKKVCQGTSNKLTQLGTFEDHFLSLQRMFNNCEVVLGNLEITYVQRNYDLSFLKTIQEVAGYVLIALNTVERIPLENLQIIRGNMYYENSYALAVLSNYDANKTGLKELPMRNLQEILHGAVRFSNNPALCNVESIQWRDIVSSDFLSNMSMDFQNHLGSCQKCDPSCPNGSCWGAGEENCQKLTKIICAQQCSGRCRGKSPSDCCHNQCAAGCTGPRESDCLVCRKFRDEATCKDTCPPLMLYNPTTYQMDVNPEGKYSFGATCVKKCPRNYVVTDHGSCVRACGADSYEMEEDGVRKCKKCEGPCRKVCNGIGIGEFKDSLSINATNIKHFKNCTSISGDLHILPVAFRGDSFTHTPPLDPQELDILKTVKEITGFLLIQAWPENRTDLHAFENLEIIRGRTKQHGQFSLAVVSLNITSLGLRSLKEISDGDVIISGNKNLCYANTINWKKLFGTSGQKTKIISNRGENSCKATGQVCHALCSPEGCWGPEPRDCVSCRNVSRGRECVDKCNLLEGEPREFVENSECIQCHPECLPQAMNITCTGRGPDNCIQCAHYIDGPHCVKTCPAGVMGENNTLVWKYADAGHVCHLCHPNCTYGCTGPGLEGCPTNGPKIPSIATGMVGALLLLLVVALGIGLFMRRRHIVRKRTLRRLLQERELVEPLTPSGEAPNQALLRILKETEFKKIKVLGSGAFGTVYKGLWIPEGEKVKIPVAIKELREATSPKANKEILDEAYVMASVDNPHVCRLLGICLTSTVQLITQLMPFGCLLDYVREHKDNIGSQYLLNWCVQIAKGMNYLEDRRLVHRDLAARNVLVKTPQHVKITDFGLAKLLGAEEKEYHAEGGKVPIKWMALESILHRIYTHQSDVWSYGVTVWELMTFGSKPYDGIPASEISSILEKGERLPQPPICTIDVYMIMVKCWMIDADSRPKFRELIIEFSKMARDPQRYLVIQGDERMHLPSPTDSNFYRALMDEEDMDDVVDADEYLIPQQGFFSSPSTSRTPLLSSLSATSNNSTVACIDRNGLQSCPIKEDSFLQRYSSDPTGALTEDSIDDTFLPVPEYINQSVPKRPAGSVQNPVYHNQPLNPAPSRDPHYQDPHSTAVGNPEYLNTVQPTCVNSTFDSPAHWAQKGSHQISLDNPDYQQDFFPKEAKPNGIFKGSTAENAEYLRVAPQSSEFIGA

Row | Structure (SMILES) | IC50 (CDK2) | IC50 (EGFR)
1 | O=c1[nH]ccc(NCC(O)c2cccc(Cl)c2)c1-c1nc2cnccc2[nH]1 (configuration not stated) | < 25 µM | < 25 µM
2 | Cc1nc(N2CCOCC2)nc2[nH]c(-c3c(NC[C@@H](O)c4cccc(Cl)c4)cc[nH]c3=O)nc12 | < 25 µM | < 25 µM
3 | O=c1[nH]ccc(NC[C@@H](O)c2cccc(Br)c2)c1-c1nc2cc3cn[nH]c3cc2[nH]1 | < 25 µM | < 25 µM
4 | CCOC(=O)C1CC1CN1CCN(c2nc(C)c3nc(-c4c(NC[C@@H](O)c5cccc(Cl)c5)cc[nH]c4=O)[nH]c3n2)CC1 (some centres not stated) | < 25 µM | < 25 µM
5 | Cc1nc(N2CCN(Cc3nccn3C)CC2)nc2[nH]c(-c3c(NC[C@@H](O)c4cccc(Cl)c4)cc[nH]c3=O)nc12 | < 25 µM | < 25 µM
6 | O=c1[nH]c2cc3nc(-c4c(NC[C@@H](O)c5cccc(Cl)c5)cc[nH]c4=O)[nH]c3cc2[nH]1 | < 25 µM | < 25 µM
7 | COc1ccc([C@H](O)CNc2cc[nH]c(=O)c2-c2nc3cc4cn[nH]c4cc3[nH]2)cc1Br | < 25 µM | < 25 µM
8 | Cc1nc(N2CCN(CC3CC3)CC2)nc2[nH]c(-c3c(NC[C@@H](O)c4cccc(Cl)c4)cc[nH]c3=O)nc12 | < 25 µM | < 25 µM
9 | Cc1nc(N2CCN(Cc3nccs3)CC2)nc2[nH]c(-c3c(NC[C@@H](O)c4cccc(Cl)c4)cc[nH]c3=O)nc12 | < 25 µM | < 25 µM
10 | O=c1[nH]ccc(NCC(O)c2cccc(Br)c2)c1-c1nc2cnccc2[nH]1 (configuration not stated) | < 25 µM | < 25 µM
11 | Cc1nc(N2CCN(Cc3cccc(F)c3)CC2)nc2[nH]c(-c3c(NC[C@@H](O)c4cccc(Cl)c4)cc[nH]c3=O)nc12 | < 25 µM | < 25 µM
12 | Cc1nc(N2CCN(Cc3cccn3C)CC2)nc2[nH]c(-c3c(NC[C@@H](O)c4cccc(Cl)c4)cc[nH]c3=O)nc12 | < 25 µM | < 25 µM
13 | Cc1nc(N2CCN(Cc3ncc[nH]3)CC2)nc2[nH]c(-c3c(NC[C@@H](O)c4cccc(Cl)c4)cc[nH]c3=O)nc12 | < 25 µM | < 25 µM
14 | O=c1[nH]ccc(NC[C@@H](O)c2cccc(Cl)c2)c1-c1nc2cc3cn[nH]c3cc2[nH]1 | < 25 µM | < 25 µM
15 | Cc1nc(N2CCN(C(=O)OC(C)(C)C)CC2)nc2[nH]c(-c3c(NC[C@@H](O)c4cccc(Cl)c4)cc[nH]c3=O)nc12 | < 25 µM | < 25 µM
16 | CCN1CCN(c2nc(C)c3nc(-c4c(NC[C@@H](O)c5cccc(Cl)c5)cc[nH]c4=O)[nH]c3n2)CC1 | < 25 µM | < 25 µM
17 | COc1ccc(C(O)CNc2cc[nH]c(=O)c2-c2nc3cnccc3[nH]2)cc1Br (configuration not stated) | < 25 µM | < 25 µM
18 | Cc1nc(N2CCN(Cc3ccccn3)CC2)nc2[nH]c(-c3c(NC[C@@H](O)c4cccc(Cl)c4)cc[nH]c3=O)nc12 | < 25 µM | < 25 µM
19 | Cc1nc(N2CCNCC2)nc2[nH]c(-c3c(NC[C@@H](O)c4cccc(Cl)c4)cc[nH]c3=O)nc12 | < 25 µM | < 25 µM
20 | CCC(C)CN1CCN(c2nc(C)c3nc(-c4c(NC[C@@H](O)c5cccc(Cl)c5)cc[nH]c4=O)[nH]c3n2)CC1 (some centres not stated) | < 25 µM | < 25 µM
21 | Cc1nc(N2CCN(COCc3ccccc3)CC2)nc2[nH]c(-c3c(NC[C@@H](O)c4cccc(Cl)c4)cc[nH]c3=O)nc12 | < 25 µM | < 25 µM
